Data taken from ChEMBL document CHEMBL4627344, “Synthesis, biological evaluation and virtual screening of some acridone derivatives as potential anticancer agents” (2020).

Experiments:
Type in all cases: functional
[1] = system: BT-549; test: Antiproliferative activity against human BT549 cells assessed as inhibition of cell growth at 10 uM measured after 48 hrs by SRB assay relative to control; conditions: BT-549, 48 h, read-out: GI
[2] = system: SF-539; test: Antiproliferative activity against human SF539 cells assessed as inhibition of cell growth at 10 uM measured after 48 hrs by SRB assay relative to control; conditions: SF-539, 48 h, read-out: GI
[3] = system: U-251; test: Antiproliferative activity against human U251 cells assessed as inhibition of cell growth at 10 uM measured after 48 hrs by SRB assay relative to control; conditions: U-251, 48 h, read-out: GI
[4] = system: HT-29; test: Antiproliferative activity against human HT-29 cells assessed as inhibition of cell growth measured after 48 hrs by SRB assay; conditions: HT-29, 48 h
[5] = system: UACC-62; test: Antiproliferative activity against human UACC62 cells assessed as inhibition of cell growth at 10 uM measured after 48 hrs by SRB assay relative to control; conditions: UACC-62, 48 h, read-out: GI
[6] = system: KM12; test: Antiproliferative activity against human KM12 cells assessed as inhibition of cell growth measured after 48 hrs by SRB assay; conditions: KM12, 48 h
[7] = system: K562; test: Antiproliferative activity against human K562 cells assessed as inhibition of cell growth measured after 48 hrs by SRB assay; conditions: K562, 48 h
[8] = system: SK-MEL-2; test: Antiproliferative activity against human SK-MEL-2 cells assessed as inhibition of cell growth measured after 48 hrs by SRB assay; conditions: SK-MEL-2, 48 h
[9] = system: NCI/ADR-RES; test: Antiproliferative activity against human NCI/ADR-RES cells assessed as inhibition of cell growth measured after 48 hrs by SRB assay
[10] = system: Hs-578T; test: Antiproliferative activity against human Hs 578T cells assessed as inhibition of cell growth measured after 48 hrs by SRB assay
[11] = system: CCRF-CEM; test: Antiproliferative activity against human CCRF-CEM cells assessed as inhibition of cell growth measured after 48 hrs by SRB assay
[12] = system: OVCAR-3; test: Antiproliferative activity against human OVCAR3 cells assessed as inhibition of cell growth measured after 48 hrs by SRB assay; conditions: OVCAR-3, 48 h
[13] = system: MDA-MB-231; test: Antiproliferative activity against human MDA-MB-231 cells assessed as inhibition of cell growth at 10 uM measured after 48 hrs by SRB assay relative to control; conditions: MDA-MB-231, 48 h, read-out: GI
[14] = system: SNB-19; test: Antiproliferative activity against human SNB19 cells assessed as inhibition of cell growth measured after 48 hrs by SRB assay; conditions: SNB-19, 48 h
[15] = system: SK-MEL-5; test: Antiproliferative activity against human SK-MEL-5 cells assessed as inhibition of cell growth measured after 48 hrs by SRB assay; conditions: SK-MEL-5, 48 h
[16] = system: MOLT-4; test: Antiproliferative activity against human MOLT4 cells assessed as inhibition of cell growth measured after 48 hrs by SRB assay; conditions: MOLT-4, 48 h
[17] = system: IGROV-1; test: Antiproliferative activity against human IGROV1 cells assessed as inhibition of cell growth at 10 uM measured after 48 hrs by SRB assay relative to control; conditions: IGROV-1, 48 h, read-out: GI
[18] = system: MDA-MB-468; test: Antiproliferative activity against human MDA-MB-468 cells assessed as inhibition of cell growth at 10 uM measured after 48 hrs by SRB assay relative to control; conditions: MDA-MB-468, 48 h, read-out: GI
[19] = system: MDA-MB-468; test: Antiproliferative activity against human MDA-MB-468 cells assessed as inhibition of cell growth measured after 48 hrs by SRB assay; conditions: MDA-MB-468, 48 h
[20] = system: NCI-H522; test: Antiproliferative activity against human NCI-H522 cells assessed as inhibition of cell growth at 10 uM measured after 48 hrs by SRB assay relative to control; conditions: NCI-H522, 48 h, read-out: GI
[21] = system: HCT-116; test: Antiproliferative activity against human HCT116 cells assessed as inhibition of cell growth measured after 48 hrs by SRB assay; conditions: HCT-116, 48 h
[22] = system: SN12C; test: Antiproliferative activity against human SN12C cells assessed as inhibition of cell growth measured after 48 hrs by SRB assay
[23] = system: OVCAR-5; test: Antiproliferative activity against human OVCAR5 cells assessed as inhibition of cell growth at 10 uM measured after 48 hrs by SRB assay relative to control; conditions: OVCAR-5, 48 h, read-out: GI
[24] = system: MDA-MB-435; test: Antiproliferative activity against human MDA-MB-435 cells assessed as inhibition of cell growth at 10 uM measured after 48 hrs by SRB assay relative to control; conditions: MDA-MB-435, 48 h, read-out: GI
[25] = system: SF-295; test: Antiproliferative activity against human SF295 cells assessed as inhibition of cell growth at 10 uM measured after 48 hrs by SRB assay relative to control; conditions: SF-295, 48 h, read-out: GI
[26] = system: HL-60(TB); test: Antiproliferative activity against human HL-60(TB) cells assessed as inhibition of cell growth measured after 48 hrs by SRB assay; conditions: HL-60, 48 h
[27] = system: SNB-19; test: Antiproliferative activity against human SNB19 cells assessed as inhibition of cell growth at 10 uM measured after 48 hrs by SRB assay relative to control; conditions: SNB-19, 48 h, read-out: GI
[28] = system: A498; test: Antiproliferative activity against human A498 cells assessed as inhibition of cell growth measured after 48 hrs by SRB assay; conditions: A498, 48 h
[29] = system: MDA-MB-231; test: Antiproliferative activity against human MDA-MB-231 cells assessed as inhibition of cell growth measured after 48 hrs by SRB assay; conditions: MDA-MB-231, 48 h
[30] = system: SF-295; test: Antiproliferative activity against human SF295 cells assessed as inhibition of cell growth measured after 48 hrs by SRB assay; conditions: SF-295, 48 h
[31] = system: T47D; test: Antiproliferative activity against human T47D cells assessed as inhibition of cell growth measured after 48 hrs by SRB assay
[32] = system: MOLT-4; test: Antiproliferative activity against human MOLT4 cells assessed as inhibition of cell growth at 10 uM measured after 48 hrs by SRB assay relative to control; conditions: MOLT-4, 48 h, read-out: GI
[33] = system: U-251; test: Antiproliferative activity against human U251 cells assessed as inhibition of cell growth measured after 48 hrs by SRB assay; conditions: U-251, 48 h
[34] = system: NCI-H226; test: Antiproliferative activity against human NCI-H226 cells assessed as inhibition of cell growth measured after 48 hrs by SRB assay; conditions: NCI-H226, 48 h
[35] = system: BT-549; test: Antiproliferative activity against human BT549 cells assessed as inhibition of cell growth measured after 48 hrs by SRB assay; conditions: BT-549, 48 h
[36] = system: OVCAR-5; test: Antiproliferative activity against human OVCAR5 cells assessed as inhibition of cell growth measured after 48 hrs by SRB assay; conditions: OVCAR-5, 48 h

Row | Compound | inhibition of growth at 10 µM [1] [%] | inhibition of growth at 10 µM [2] [%] | inhibition of growth at 10 µM [3] [%] | GI50 [4] [nM] | inhibition of growth at 10 µM [5] [%] | GI50 [6] [nM] | GI50 [7] [nM] | GI50 [8] [nM] | GI50 [9] [nM] | GI50 [10] [nM] | GI50 [11] [nM] | GI50 [12] [nM] | inhibition of growth at 10 µM [13] [%] | GI50 [14] [nM] | GI50 [15] [nM] | GI50 [16] [nM] | inhibition of growth at 10 µM [17] [%] | inhibition of growth at 10 µM [18] [%] | inhibition of growth at 10 µM [20] [%] | GI50 [21] [nM] | also measured
1 | COc1ccc2nc3c(cc2c1)C(=O)CC(C(F)(F)F)C3 (stereo not given) | 39.1 | 77.4 | 15.3 | 387 | 60.2 | 316 | 437 | 802 | 336 | 3350 | 238 | 1830 | 40 | 3610 | 411 | 88.2 | 63.4 | 64.4 | 68.1 | 133 | GI50 [19]: 1870 nM; GI50 [22]: 823 nM; inhibition of growth at 10 µM [23]: 42.3%; inhibition of growth at 10 µM [24]: 148%; inhibition of growth at 10 µM [25]: 54.7%; GI50 [26]: 325 nM; inhibition of growth at 10 µM [27]: 49.7%; GI50 [28]: 355 nM; GI50 [29]: 3980 nM; GI50 [30]: 853 nM; GI50 [31]: 3.29 µM; inhibition of growth at 10 µM [32]: 84.7%
2 | O=C1CC(c2ccccc2)Cc2nc3c(Br)cc(Br)cc3cc21 (stereo not given) | 94.7 | 93.1 | 91.4 | 233 | 61.7 | 242 | 67.6 | 49.2 | 236 | 191 | 88.9 | 30.2 | 84.9 | 406 | 298 | 104 | 84.8 | 116 | 91.5 | 47.8 | GI50 [33]: 421 nM; GI50 [34]: 241 nM; GI50 [35]: 541 nM; GI50 [19]: 1280 nM; GI50 [22]: 661 nM; inhibition of growth at 10 µM [23]: 52.9%; inhibition of growth at 10 µM [24]: 124%; inhibition of growth at 10 µM [25]: 132%; GI50 [26]: 226 nM; inhibition of growth at 10 µM [27]: 65.2%; GI50 [28]: 140 nM; GI50 [29]: 402 nM; GI50 [30]: 196 nM; GI50 [31]: 0.851 µM; GI50 [36]: 461 nM; inhibition of growth at 10 µM [32]: 79.2%
3 | COc1ccc2nc3c(cc2c1)C(=O)CC(c1ccccc1)C3 (stereo not given) | 48.3 | 92.1 | 55 | 428 | 63.1 | 450 | 344 | 777 | 408 | 1000 | 322 | 1230 | 45.4 | 2620 | 540 | 431 | 64.2 | 31.7 | 84.6 | 432 | GI50 [35]: 2210 nM; GI50 [22]: 639 nM; inhibition of growth at 10 µM [23]: 38.8%; inhibition of growth at 10 µM [24]: 168%; inhibition of growth at 10 µM [25]: 69%; GI50 [26]: 274 nM; inhibition of growth at 10 µM [27]: 65.7%; GI50 [28]: 346 nM; GI50 [29]: 3420 nM; GI50 [30]: 634 nM; GI50 [31]: 3.65 µM; inhibition of growth at 10 µM [32]: 82.2%
4 | O=C1CC(c2ccccc2)Cc2nc3ccc(Br)cc3cc21 (stereo not given) | 93.5 | 98.4 | 81.9 | 205 | 63.8 | 341 | 175 | 238 | 66.9 | 411 | 49.8 | 289 | 86.8 | 434 | 288 | 53.7 | 78 | 99.7 | 104 | 51.5 | GI50 [33]: 553 nM; GI50 [34]: 2250 nM; GI50 [35]: 685 nM; GI50 [19]: 2840 nM; GI50 [22]: 526 nM; inhibition of growth at 10 µM [23]: 72.8%; inhibition of growth at 10 µM [24]: 140%; inhibition of growth at 10 µM [25]: 82.8%; GI50 [26]: 214 nM; inhibition of growth at 10 µM [27]: 72.6%; GI50 [28]: 74.5 nM; GI50 [29]: 598 nM; GI50 [30]: 206 nM; GI50 [36]: 825 nM; inhibition of growth at 10 µM [32]: 89.5%
5 | O=C1CC(c2ccccc2)Cc2nc3ccc(Cl)cc3cc21 (stereo not given) | 95.4 | 112 | 81.2 | 271 | 70.7 | 349 | 119 | 320 | 64.4 | 306 | 40 | 302 | 80.5 | 425 | 203 | 67.5 | 83.5 | 89.8 | 97 | 46.8 | GI50 [33]: 729 nM; GI50 [34]: 1610 nM; GI50 [35]: 500 nM; GI50 [19]: 2470 nM; GI50 [22]: 533 nM; inhibition of growth at 10 µM [23]: 73.6%; inhibition of growth at 10 µM [24]: 139%; inhibition of growth at 10 µM [25]: 103%; GI50 [26]: 211 nM; inhibition of growth at 10 µM [27]: 75%; GI50 [28]: 87 nM; GI50 [29]: 617 nM; GI50 [30]: 196 nM; GI50 [36]: 1020 nM; inhibition of growth at 10 µM [32]: 93.2%
